Data set [1] is described as follows: In vitro logP measurement, octanol/phosphate buffer pH 7.4. The data set is classed as physicochemical. Conditions: octanol/phosphate buffer pH 7.4, radiolabeled compound, mean ± SD, n = 8. Here is the method: In vitro logP measurement: Octanol/water partition coefficient of the radiolabeled compounds were measured at Columbia University, using the method of Wilson et al. (2001), with some modifications. Briefly, 300 to 500 μCi of radioligand in EtOH was added to a separatory funnel containing octanol (20 mL) and phosphate buffer (20 mL, pH 7.4). The mixture was shaken mechanically for 3 minutes and the layers were separated. The octanol layer (15 mL) was transferred to a second separatory funnel containing 15 mL of the phosphate buffer (pH 7.4). The mixture was shaken mechanically for 3 minutes and the layers were separated. This second octanol layer was then partitioned into four test tubes (2 mL each) and the phosphate buffer (2 mL each) added. The test tubes were vortexed for 10 minutes, and then centrifuged for 10 minutes at 1000 rpm to separate the layers. The octanol and aqueous phases (1.0 mL each) were transferred into counting tubes and counted with a gamma counter (Wallac 1480 Wizard 3M Automatic Gamma Counter, Perkin-Elmer, Boston, Mass.). The radioactivity counts were decay-corrected and the partition coefficient calculated as P=counts in octanol/counts in buffer. Eight separate measurements were preformed for each tracer.

Data set [2] deals with T1, norepinephrine transporter (NET) (Homo sapiens, UniProt P23975).
T1 construct: host or cells: either rat cortical tissue or cells expressing the cloned human transporter
Kind of data set: In vitro binding affinity for NET, radioligand [^3H]nisoxetine (Table 1). Also on record: species or system rat or human (cloned). Here is the method:
(§1) Selected compounds were assayed in vitro for their binding affinity for the dopamine transporter (DAT), serotonin transporter (SERT), and norepinephrine transporter (NET) using membranes prepared from either the rat cortical tissues or cells expressed with cloned-human transporters and radioligands. Radioligands used were [^3H]paroxetine (SERT), [^3H]nisoxetine (NET), and [^3H]GBR12935 (DAT).

For data set [3], the target named is T2, SERT (Rattus norvegicus, UniProt P31652). The data set can be described thus: In vitro binding assay on rat frontal cortex homogenates using [^3H]paroxetine. Also on record: from tissue; host or cells: frontal cortex of male Sprague-Dawley rats, washed membrane homogenate. Conditions: mean ± SD, n = 3. Here is the method: In vitro binding assays: Measurement of the inhibition constants (Ki) of the labeled compounds in FIG. 1 on rat frontal cortex homogenates were performed at Columbia University using [^3H]paroxetine, as previously described (Laruelle et al., 1988b). Briefly, male Sprague-Dawley rats (250-300 g) were killed by decapitation. Dissection of the brain was carried out on ice and samples of the frontal cortex were stored at −40° C. until binding assay. After thawing, samples were homogenized in 10 volumes of buffer (50 mM Tris-HCl, pH 7.4, 120 mM NaCl and 5 mM KCl). The homogenates were centrifuged at 10,000 rpm for 10 minutes. Pellets were resuspended in 10 volumes of buffer, incubated at 37° C. for 10 minutes, and centrifuged again. This procedure was then repeated a third time.
For the binding assay, membranes were suspended in buffer at a final protein concentration of 5 mg/mL. Unlabelled drugs were dissolved in dimethyl sulfoxide (DMSO) in borosilicate glass tubes to yield a 1 mM stock solution, from which subsequent serial dilutions were performed with the buffer. Aliquots of tissue preparation were incubated with [^3H]paroxetine (0.1 nM) at 22° C. or 37° C. for 60 minutes in the absence or presence of unlabelled drug (10^−5 to 10^−12 M) to yield a final volume of 0.5 mL (borosilicate glass tubes). Nonspecific binding was defined by incubation with 10 μM of citalopram. Each concentration was performed in triplicates. After incubation, the mixture was rapidly filtered through Whatman GF/B glass fiber filters using a 48-channel cell harvester (Brandel, Gaithersburg, Md.). The filters were washed 3 times with 4 mL each of ice cold buffer, placed in vials with 4 mL Ultima Gold solvent (Packard Instrument Co., Downers Grove, Ill.), and counted the following day for radioactivity in a liquid scintillation counter (Tricarb 1500, Packard Instrument Co., Downers Grove, Ill.). This experiment was performed three times at 22° C. and 37° C., on three different days. Ki values were derived using GraphPad Prism software (San Diego, Calif.).

In data set [4] the target is T3, serotonin transporter (SERT) (Rattus norvegicus, UniProt P31652).
T3 construct: membranes prepared from either the rat cortical tissues or cells expressed with cloned-human transporters; from tissue; host or cells: rat cortical tissue membranes (inferred; the alternative is cells expressing cloned human SERT)
The data set can be described thus: In vitro binding affinity for SERT, radioligand [^3H]paroxetine (Table 1). More on the design: species or system rat or human (cloned). Here is the method: as §1

Data set [5] concerns the target T2, SERT. More on the design: host or cells: rat brain membranes (for ADAM/IDAM). To be noted: literature; [^125I] ligands in rat brain membranes; cited from earlier work.
The target in data set [6] is T4, dopamine transporter (DAT) (Homo sapiens, UniProt Q01959).
T4 construct: host or cells: either rat cortical tissue or cells expressing the cloned human transporter
The data set can be described thus: In vitro binding affinity for DAT, radioligand [^3H]GBR12935 (Table 1). Also on record: species or system rat or human (cloned). Here is the method: as §1

For data set [7] the following is noted: literature (Laruelle et al., 1994a); cited from earlier work.
The conditions of data set [8]: humans, literature; cited from earlier work.
Data set [9] has as its target SERT. Conditions: literature; cited from earlier work.

Structures can show the parent of a compound that is named as a salt. Where two headings read alike, the source gives them in different places.

T2 sequence (P31652 whole entry): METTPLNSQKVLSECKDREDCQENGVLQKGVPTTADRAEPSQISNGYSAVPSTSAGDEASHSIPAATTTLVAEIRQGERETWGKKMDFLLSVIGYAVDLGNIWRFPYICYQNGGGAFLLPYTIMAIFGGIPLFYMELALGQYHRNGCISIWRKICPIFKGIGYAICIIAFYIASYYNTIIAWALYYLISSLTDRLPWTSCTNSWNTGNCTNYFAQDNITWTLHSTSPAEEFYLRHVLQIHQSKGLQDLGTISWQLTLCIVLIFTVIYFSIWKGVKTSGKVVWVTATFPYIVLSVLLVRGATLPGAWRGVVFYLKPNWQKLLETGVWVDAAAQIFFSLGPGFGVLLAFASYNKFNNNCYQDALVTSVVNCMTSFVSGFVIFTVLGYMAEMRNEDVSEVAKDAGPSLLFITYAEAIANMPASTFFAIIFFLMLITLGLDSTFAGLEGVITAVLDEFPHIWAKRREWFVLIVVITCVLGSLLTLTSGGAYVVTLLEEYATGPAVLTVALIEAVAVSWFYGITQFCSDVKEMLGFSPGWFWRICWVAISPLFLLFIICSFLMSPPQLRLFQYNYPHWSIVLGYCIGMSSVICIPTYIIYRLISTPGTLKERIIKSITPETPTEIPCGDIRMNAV
T1 sequence (P23975 whole entry, species assumed): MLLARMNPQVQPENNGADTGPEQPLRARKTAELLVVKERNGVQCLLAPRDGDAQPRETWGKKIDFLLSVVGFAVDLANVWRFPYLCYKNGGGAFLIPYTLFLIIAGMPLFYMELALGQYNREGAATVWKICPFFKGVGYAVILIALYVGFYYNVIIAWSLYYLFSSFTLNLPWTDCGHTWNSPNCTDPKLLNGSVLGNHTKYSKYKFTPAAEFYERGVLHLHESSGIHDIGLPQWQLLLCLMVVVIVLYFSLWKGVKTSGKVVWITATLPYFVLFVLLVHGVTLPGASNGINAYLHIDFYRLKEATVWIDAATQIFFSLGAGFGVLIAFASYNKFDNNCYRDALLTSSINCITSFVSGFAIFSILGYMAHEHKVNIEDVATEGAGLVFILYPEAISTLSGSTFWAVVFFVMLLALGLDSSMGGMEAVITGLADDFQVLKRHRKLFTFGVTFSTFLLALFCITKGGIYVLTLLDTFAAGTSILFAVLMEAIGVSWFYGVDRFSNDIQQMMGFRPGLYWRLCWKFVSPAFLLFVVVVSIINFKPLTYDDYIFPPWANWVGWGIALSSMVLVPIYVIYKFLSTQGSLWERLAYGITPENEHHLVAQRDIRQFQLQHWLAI
T3 sequence (P31652 whole entry): as the sequence (P31652 whole entry) above
T4 sequence (Q01959 whole entry, species assumed): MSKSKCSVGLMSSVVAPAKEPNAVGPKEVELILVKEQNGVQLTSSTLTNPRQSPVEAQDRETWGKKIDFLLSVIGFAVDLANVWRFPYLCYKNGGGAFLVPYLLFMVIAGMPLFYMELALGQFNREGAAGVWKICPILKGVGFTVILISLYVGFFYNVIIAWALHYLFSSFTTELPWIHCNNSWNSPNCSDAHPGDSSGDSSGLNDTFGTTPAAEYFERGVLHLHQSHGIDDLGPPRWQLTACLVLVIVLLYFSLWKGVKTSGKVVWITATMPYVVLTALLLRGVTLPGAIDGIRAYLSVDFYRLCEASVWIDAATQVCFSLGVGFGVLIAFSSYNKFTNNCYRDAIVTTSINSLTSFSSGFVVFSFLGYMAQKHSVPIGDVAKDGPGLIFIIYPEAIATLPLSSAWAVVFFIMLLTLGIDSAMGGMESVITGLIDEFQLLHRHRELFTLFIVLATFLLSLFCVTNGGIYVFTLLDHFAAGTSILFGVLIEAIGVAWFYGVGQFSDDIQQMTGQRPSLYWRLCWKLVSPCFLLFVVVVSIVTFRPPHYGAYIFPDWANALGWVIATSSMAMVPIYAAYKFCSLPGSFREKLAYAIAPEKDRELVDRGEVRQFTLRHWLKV

Turning to `CN(C)Cc1ccccc1Sc1ccc(I)cc1N` [ADAM, 2-{2-[(dimethylamino)methyl]phenylthio}-5-iodophenylamine], the log partition coefficient (logP) (commonly a log measure of how a compound divides between an organic and an aqueous phase) in data set [1] is 3.31 ± 0.13. Further, the Ki (in general, a measure of affinity in units of concentration, obtained from inhibition or displacement) in [2] is 1350 nM; at SERT [3] (22° C., read-out: Ki for SERT at 22° C.), 0.32 ± 0.11 nM; on SERT [3] (37° C., read-out: Ki for SERT at 37° C.), 0.4 ± 0.16 nM; in [4] it was 0.32 nM; at SERT [5] it was 0.15 nM; in data set [6] it was greater than 10 µM.

On to `CN(C)Cc1ccccc1Sc1ccc(I)cc1CO` [[^125I]IDAM], for which the Ki at SERT [5] is 0.25 nM.

Turning to `COC(=O)C1C(c2ccc([123I])cc2)CC2CCC1N2C` (stereo not drawn) [[^123I]β-CIT, [^123I]2β-carbomethoxy-3β-(4-iodophenyl)tropane], the Plasma free fraction in [7] is on record as 40±5%. For the same compound, the “VT CER (nonspecific distribution volume)” value in [8] was 28 ± 3 mL/g.

With `CN(C)Cc1ccccc1Sc1ccc([125I])cc1N` [[^125I]ADAM], the inhibitory constant (Ki) at SERT [5] is 0.15 nM.

For the compound `CN(C)Cc1ccccc1Sc1ccc(I)cc1CO` [[^123I]IDAM, 5-iodo-2-((2-((dimethylamino)methyl)phenyl)thio)benzyl alcohol], the dissociation constant (Kd) (in general, a measure of binding affinity in units of concentration) at SERT [9] was 0.25 nM.

`CN(C)Cc1ccccc1Sc1ccc(CF)cc1N` (as salt: tartrate) [AFM, 2-(2-(Dimethylaminomethyl)phenylthio)-5-fluoromethylphenylamine]: the melting point (commonly the temperature, or range, at which the solid turns liquid) was in the range of 142 to 143 °C.

With `COc1c(O[11CH3])cccc1[C@H](O)C1CCN(CCc2ccc(F)cc2)CC1` [[^11C]MDL 100907], in data set [8], the “VT CER (nonspecific distribution volume)” value was 18 ± 4 mL/g.

Values taken from patent publication US20110097274A1, “Carbon-11 and fluorine-18 labeled radioligands for positron emission tomography (PET) imaging for the brain serotonin transporters” (priority 2002, published 2011).
